Reference: PubChem BioAssay AID248 (DTP/NCI, 2004)
Toxic doses and inconclusive results are not listed. Rule as the data show it: active = T/C of 150% or more; inactive = T/C below 125%.

Test system: L1210 leukemia ip in BDF1 mice, survival T/C
Assay: NCI In Vivo Anticancer Drug Screen. Data for tumor model L1210 Leukemia (intraperitoneal) in B6D2F1 (BDF1) mice
Conditions: endpoint: mean survival time, higher = longer survival
In short: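 Read-out is survival time, reported as the treated-group measurement over the vehicle-control measurement.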

[1] = dose: 50.0 mg/kg/injection, schedule: Q01DX009 (ip), vehicle: saline with Tween-80
[2] = dose: 100.0 mg/kg/injection, schedule: Q01DX009 (ip), vehicle: saline with Tween-80
[3] = dose: 100.0 mg/kg/injection, schedule: Q01DX001 (ip), vehicle: saline with Tween-80
[4] = dose: 200.0 mg/kg/injection, schedule: Q01DX001 (ip), vehicle: saline with Tween-80
[5] = dose: 400.0 mg/kg/injection, schedule: Q01DX001 (ip), vehicle: saline with Tween-80

Measured: T/C

CCCCCCCCCCOB(OCCCCCCCCCC)OCCCCCCCCCC
inactive: dose: 25.0 mg/kg/injection, schedule: Q01DX009 (ip), vehicle: saline with Tween-80 93 % of control | [1] 96 % of control | [2] 96 % of control

CCC(=O)C(CCN(C)C)(c1ccccc1)c1ccccn1 (configuration not stated)
inactive: dose: 44.0 mg/kg/injection, schedule: Q01DX Z (ip), vehicle: saline 98 % of control | dose: 66.0 mg/kg/injection, schedule: Q01DX Z (ip), vehicle: saline 104 % of control

CN(C)c1ccc(/C=C2\CC/C(=C\c3ccc(N(C)C)cc3)C2=O)cc1
inactive: dose: 100.0 mg/kg/injection, schedule: Q01DX009 (ip), vehicle: Klucel (hydroxypropylcellulose) (HPC) 105 % of control | dose: 200.0 mg/kg/injection, schedule: Q01DX009 (ip), vehicle: Klucel (hydroxypropylcellulose) (HPC) 97 % of control | dose: 400.0 mg/kg/injection, schedule: Q01DX009 (ip), vehicle: Klucel (hydroxypropylcellulose) (HPC) 89 % of control

O=CNC(Cc1ccc(OCc2ccccc2)cc1)C(=O)O (configuration not stated)
inactive: [1] 98 % of control | [3] 89 % of control | [2] 96 % of control | [4] 95 % of control | dose: 200.0 mg/kg/injection, schedule: Q01DX009 (ip), vehicle: saline with Tween-80 98 % of control | [5] 88 % of control

Nc1nc(SCc2ccccc2)c2ncnnc2n1
inactive: [3] 97 % of control | [4] 103 % of control | [5] 98 % of control
